SMILES strings stand for the structures. Read-outs that look alike come from different tables or passages of the source.

For one series, the system named is Peronospora parasitica. In words: In vivo preventive test on Peronospora parasitica (Crucifer downy mildew) on cabbage. The note with it: Hyaloperonospora parasitica, 120 h, sprayed 72 hours before inoculation, evaluated 5 days after inoculation, read-out: efficacy; for pest or weed control at 125 ppm: 125 ppm of active ingredient; for pest or weed control at 500 ppm: 500 ppm of active ingredient; for pest or weed control at 31 ppm: 31 ppm of active ingredient. On the procedure:
(§1) The tested active ingredients were prepared by homogenization in a mixture of acetone/Dimethyl sulfoxide/Tween®, and then diluted with water to obtain the desired active material concentration.
(§2) The young plants of cabbage were treated by spraying the active ingredient prepared as described above. Control plants were treated only with an aqueous solution of acetone/Dimethyl sulfoxide/Tween®.
After 72 hours, the plants were contaminated by spraying the leaves with an aqueous suspension of Peronospora parasitica spores. The contaminated cabbage plants were incubated for 5 days at 20° C. and at 100% relative humidity.
The test was evaluated 5 days after the inoculation. 0% means an efficacy which corresponds to that of the control plants while an efficacy of 100% means that no disease was observed.

Series [1] has as its system Xanthomonas campestris pv. campestris. In words: In vivo preventive test on Xanthomonas campestris pv. campestris (black rot on cabbage). The note with it: Xanthomonas campestris, sprayed 72 hours before inoculation, evaluated 8 or 10 days after inoculation, read-out: efficacy; for pest or weed control at 31 ppm: 31 ppm of active ingredient; for pest or weed control at 500 ppm: 500 ppm of active ingredient. The method, then: as §1, §2
After 72 hours, the plants were contaminated by spraying the leaves with an aqueous bacteria suspension of Xanthomonas campestris pv. campestris. The contaminated cabbage plants were incubated for 8 or 10 days at 27° C. at 95% relative humidity.
The test was evaluated 8 or 10 days after the inoculation. 0% means an efficacy which corresponds to that of the control plants while an efficacy of 100% means that no disease was observed.

Series [2] concerns Colletotrichum lindemuthianum. In words: In vivo preventive test on Colletotrichum lindemuthianum (Anthracnose on bean). The note with it: sprayed 72 hours before inoculation, evaluated 6 days after inoculation; for pest or weed control at 31 ppm / pest or weed control at 125 ppm / pest or weed control at 500 ppm: Colletotrichum lindemuthianum, 144 h, read-out: efficacy; for pest or weed control at 31 ppm: 31 ppm of active ingredient; for pest or weed control at 125 ppm: 125 ppm of active ingredient. The method, then:
as §1
(§3) The young plants of bean were treated by spraying the active ingredient prepared as described above. Control plants were treated only with an aqueous solution of acetone/Dimethyl sulfoxide/Tween®.
After 72 hours, the plants were contaminated by spraying the leaves with an aqueous suspension of Colletotrichum lindemuthianum spores. The contaminated bean plants were incubated for 24 hours at 20° C. and at 100% relative humidity and then for 5 days at 20° C. and at 90% relative humidity.
The test was evaluated 6 days after the inoculation. 0% means an efficacy which corresponds to that of the control plants while an efficacy of 100% means that no disease was observed.

The subject of a further series is Uromyces appendiculatus. In words: In vivo preventive test on Uromyces appendiculatus (bean rust). The note with it: 240 h, sprayed 72 hours before inoculation, evaluated 10 days after inoculation, read-out: efficacy; for pest or weed control at 31 ppm: 31 ppm of active ingredient; for pest or weed control at 500 ppm: 500 ppm of active ingredient; for pest or weed control at 125 ppm: 125 ppm of active ingredient. The method, then:
as §1, §3
After 72 hours, the plants were contaminated by spraying the leaves with an aqueous suspension of Uromyces appendiculatus spores. The contaminated bean plants were incubated for 24 hours at 20° C. and at 100% relative humidity and then for 9 days at 20° C. and at 70-80% relative humidity.
The test was evaluated 10 days after the inoculation. 0% means an efficacy which corresponds to that of the control plants while an efficacy of 100% means that no disease was observed.

Series [3] has as its system salicylate responsive promoter sequence of the PR1 (pathogenesis-related protein I) gene (AT2G14610). In words: Induction of defense gene expression in Arabidopsis thaliana (PR1 promoter-GFP reporter plants). The series is classed as in vivo. Particulars: 72 h, 3rd day after spraying, mock treated leaves set as 1.00, read-out: relative fluorescence value. On the procedure: Arabidopsis thaliana reporter plants containing the coding sequence of a green fluorescent protein (GFP) linked to the salicylate responsive promoter sequence of the PR1 (pathogenesis-related protein I) gene (AT2G14610) were grown for five days and then sprayed with compounds. On the 3rd day after spraying, plant fluorescence was assessed with a MacroFluo instrument from Leica Microsystems (Wetzlar, Germany). Fluorescences were quantified with the Meta-Morph Microscopy Automation & Image Analysis Software (Molecular Devices, Sunnyvale, Calif., United States). Background fluorescence in mock treated leaves was set as 1.00.

Series [4] can be described thus: LogP by HPLC on reversed phase columns (EEC directive 79/831 Annex V.A8). The series is classed as physicochemical. Particulars: for chromatographic logP: reversed phase HPLC columns. On the procedure: [table] If more than one Log P value is available within the same method, all the values are given and separated by “+”. Calibration was done with straight-chain alkan2-ones (with 3 to 16 carbon atoms) with known Log P values (measurement of Log P values using retention times with linear interpolation between successive alkanones). Lambda-max-values were determined using UV-spectra from 200 nm to 400 nm and the peak values of the chromatographic signals.

Setting [5] is: method [a]: LC-UV, acidic range, 0.1% formic acid in water and acetonitrile as eluent.

For the compound `O=C(NC1(C(=O)O)CC1)c1cc(Cl)c(Cl)s1` [CMP3, reference compound], in the series on Peronospora parasitica, the pest or weed control at 125 ppm is 0% and the pest or weed control at 500 ppm came to 0%. In series [1], the pest or weed control at 31 ppm was less than 40% and the pest or weed control at 500 ppm is 0%.

For the compound `COC(=O)C1(NC(=O)c2cc(Cl)c(Cl)s2)CC1` [CMP4, reference compound], the results for the pest or weed control at 125 ppm (with Peronospora parasitica; in series [2]) were 0% and less than 40%, respectively. Also, the pest or weed control at 500 ppm (with Peronospora parasitica; in series [1]) was 0% in each case. For the same compound, the figures for the pest or weed control at 31 ppm (in series [2]; in the series on Uromyces appendiculatus; in series [1]) were 0%, less than 40% and 0%, respectively.

On to `COC(=O)C1(NC(=O)c2cc(Br)c(Br)s2)CC1` [CMP5, reference compound], for which, in the series on Peronospora parasitica, the pest or weed control at 125 ppm is less than 40%. The pest or weed control at 125 ppm in series [2] is 0%. Besides, in the series with Uromyces appendiculatus, the pest or weed control at 31 ppm was found to be 0% and the pest or weed control at 500 ppm was less than 20%.

Consider `CCOC(=O)C1(NC(=O)c2cc(Cl)c(Cl)s2)CC1` [CMP6, reference compound], for which, in the series on Peronospora parasitica, the pest or weed control at 125 ppm is 0% and the pest or weed control at 500 ppm came out at 0%. Moreover, the pest or weed control at 31 ppm in series [2] was less than 40%.

Turning to `CCCOC(=O)C1(NC(=O)c2cc(Br)c(Br)s2)CC1` [CMP7, reference compound], the pest or weed control at 500 ppm in the series on Peronospora parasitica was 0%.

As for `O=C(NC(C(=O)O)C1CC1)c1sc(Br)c(Br)c1Br` (stereo not shown) [CMP8, reference compound], the pest or weed control at 500 ppm in series [1] was less than 10%.

For `O=C(NC(C(=O)O)C1CC1)c1cc(Br)c(Br)s1` (stereo not shown) [CMP13, reference compound], the pest or weed control at 125 ppm in the series on Peronospora parasitica worked out at 0%.

For the compound `COC(=O)C(NC(=O)c1sc(Br)c(Br)c1Br)C1CC1` (stereo not shown) [CMP14, reference compound], in the series on Peronospora parasitica, the pest or weed control at 31 ppm turned out to be 0% and the pest or weed control at 125 ppm stood at 0%.

Turning to `CCOC(=O)CN(C)C(=O)c1sc(Br)c(Br)c1Br` [CMP15, reference compound], in the series on Peronospora parasitica, the pest or weed control at 125 ppm is less than 30%. The pest or weed control at 500 ppm in series [2] (500 ppm of active ingredient) is less than 40%.

`COC(=O)CC[C@H](NC(=O)c1sc(Br)c(Br)c1C)C(=O)OC` [CMP16, reference compound] returned an efficacy in series [2] (500 ppm of active ingredient) of 38%.

For the compound `COC(=O)C1(NC(=O)c2sc(Br)c(Br)c2C)CCC1` [I.131], in the series with Peronospora parasitica, the pest or weed control at 31 ppm is 80 to 89%, the pest or weed control at 125 ppm lay within 90 to 100% and the pest or weed control at 500 ppm is 90 to 100%. In addition, in series [3], the fold induction at 75 ppm was greater than 2 and the fold induction at 300 ppm is greater than 2. The pest or weed control at 500 ppm in series [2] (500 ppm of active ingredient) is 80 to 89%. Besides, in the series with Uromyces appendiculatus, the pest or weed control at 125 ppm fell in the range of 90 to 100% and the pest or weed control at 500 ppm was 90 to 100%. In series [4] (method [a]), this compound had a chromatographic logP of 3.4.

On to `CCOC(=O)C1(NC(=O)c2sc(Br)c(Br)c2C)CCC1` [I.132], for which, in the series with Peronospora parasitica, the pest or weed control at 31 ppm lay within 80 to 89%, the pest or weed control at 125 ppm was 80 to 89% and the pest or weed control at 500 ppm lay in the range of 90 to 100%. In addition, in series [3], the fold induction at 75 ppm is greater than 2 and the fold induction at 300 ppm was greater than 2. Further, the pest or weed control at 500 ppm in series [2] (500 ppm of active ingredient) lay within 70 to 79%. In addition, in the series with Uromyces appendiculatus, the pest or weed control at 31 ppm fell in the range of 90 to 100%, the pest or weed control at 125 ppm lay within 90 to 100% and the pest or weed control at 500 ppm lay in the range of 90 to 100%. Further, in series [4] (method [a]), the chromatographic logP was determined as 3.81.

Turning to `CCCOC(=O)C1(NC(=O)c2sc(Br)c(Br)c2C)CCC1` [I.133], in the series on Peronospora parasitica, the pest or weed control at 31 ppm fell in the range of 70 to 79%, the pest or weed control at 125 ppm is 90 to 100% and the pest or weed control at 500 ppm is 90 to 100%. Besides, in series [3], the fold induction at 75 ppm is greater than 2 and the fold induction at 300 ppm is greater than 2. In the series on Uromyces appendiculatus, the pest or weed control at 31 ppm lay in the range of 90 to 100%, the pest or weed control at 125 ppm was 90 to 100% and the pest or weed control at 500 ppm lay within 90 to 100%. In series [4] (method [a]), this compound returned a chromatographic logP of 4.23.

Turning to `CCCSC(=O)C1(NC(=O)c2sc(Br)c(Br)c2C)CC1` [I.134], the pest or weed control at 500 ppm lay in the range of 80 to 89% in the series with Peronospora parasitica and 90 to 100% in the series on Uromyces appendiculatus. Moreover, the fold induction at 75 ppm in series [3] is greater than 2. In series [3], the fold induction at 300 ppm is greater than 2. In series [4] (method [a]), this compound had a chromatographic logP of 4.26.

In the case of `Cc1c(C(=O)NC2CCCCNC2=O)sc(Cl)c1Cl` (stereo not shown) [I.163], the LogP in series [4] (setting [5]) is 2.67^[a].

As to `COC(=O)C(C)(Cc1ccccc1)NC(=O)c1sc(Cl)c(Cl)c1C` (stereo not shown) [I.166], the LogP in series [4] (method [a]) is 4.60^[a].

For `Cc1c(C(=O)N[C@H]2CCOC2=O)sc(Cl)c1Cl` [I.167], the LogP in series [4] (setting [5]) is 2.34^[a].

Turning to `CCOC(=O)CN(C(=O)c1sc(Cl)c(Cl)c1C)C1CC1` [I.168], in series [4] (method [a]), the LogP was 3.75^[a].

For the compound `Cc1c(C(=O)NC2(C#N)CCSCC2)sc(Br)c1Br` [I.169], in series [4] (method [a]), the LogP is 3.59^[a].

Take `Cc1c(C(=O)NC2(C#N)CCC(c3ccccc3)CC2)sc(Br)c1Br` (stereo not shown) [I.170]: the LogP in series [4] (setting [5]) was 4.78^[a].

Take `Cc1c(C(=S)NCC(=O)O)sc(Cl)c1Cl` [I.172]: the LogP in series [4] (method [a]) is 2.71^[a].

`Cc1c(C(=S)NC(C)C(=O)O)sc(Br)c1Br` (stereo not shown) [I.173]: the LogP in series [4] (method [a]) is 3.05^[a].

As for `Cc1c(C(=O)NC2(C#N)CCCSC2)sc(Br)c1Br` (stereo not shown) [I.177], in series [4] (method [a]), the LogP was 3.50^[a].

Consider `Cc1c(C(=O)NCC(=O)O)sc(Br)c1Br` [N-[(4,5-dibromo-3-methyl-2-thienyl)carbonyl]glycine], for which, in series [4] (preparation examples, method not indicated, read-out: Log P), the chromatographic logP came out at 2.05.

As to `O=C(O)c1ccccc1O` [Salicylic acid, reference compound], in series [3], the fold induction at 300 ppm was found to be 2.7.

These data come from patent US12509437B2, “Substituted thiophene carboxamides and derivatives thereof as microbicides” (Bayer Aktiengesellschaft, priority 2019, dated 2025).
